Results as given in patent US20100249413A1, “STABILIZED PHARMACEUTICAL COMPOSITION” (priority 2006, published 2010).

Experiments:
[1] = reported in Patent Document 1; cited from earlier work
[2] = bulk material, reported in Patent Document 2; cited from earlier work
[3] = bulk material, reported in Patent Document 2; cited from earlier work; remark: listed apart in the source
cancer proliferation = settings: reported in Patent Document 1; cited from earlier work
[4] = Light stability of compound A solution with various stabilizers: photolyzed substances by HPLC (Experimental Example 1); assay type: physicochemical; settings: compound A drug solution 5 mg/mL, D65 lamp/1000 lux, 24 hours, room temperature
Experimental: Each sample was stored upside-down under a condition of D65 lamp/1000 lux in a constantly changing room temperature for 24 hours to evaluate the stability by measuring the increased amounts of photolyzed substances. The measurement of photolyzed substances was carried out using HPLC.
Mobile phase (liquid A): 0.1% trifluoroacetic acid aqueous solution/acetonitrile=9:2, (liquid B) acetonitirle, gradient % (capacity) B: 0% (0 to 60 min)/linear 75% (60 to 80 min)/linear 0% (80 to 100 min), column:TSK-gel ODS-80TsQA, 4.6×150 mm, particle diameter 5 μm (produced by Tosoh Corp.), flow rate: 1 mL/min, column temperature: 40° C., detection: UV 270 nm.

## COCCn1c2c([n+](Cc3cnccn3)c1C)C(=O)c1ccccc1C2=O.[Cl-] [chloride of compound A, 1-(2-methoxyethyl)-2-methyl-4,9-dioxo-3-(pyrazin-2-ylmethyl)-4,9-dihydro-1H-naphtho[2,3-d]imidazol-3-ium chloride]
[1]
  toxicity: low in toxicity
[2]
  storage stability (humidity, long-term storage): unstable to humidity
[3]
  hygroscopicity: has hygroscopicity
Cancer proliferation
  cancer proliferation-inhibitory activity in vivo: excellent cancer proliferation-inhibitory activity in vivo

## COCCn1c2c([n+](Cc3cnccn3)c1C)C(=O)c1ccccc1C2=O [compound A, 1-(2-methoxyethyl)-2-methyl-4,9-dioxo-3-(pyrazin-2-ylmethyl)-4,9-dihydro-1H-naphtho[2,3-d]imidazol-3-ium]
[4]
  Photolyzed Substance Amount (%): 3.4%
